Laboratory results from ChEMBL document CHEMBL1909046, “DrugMatrix in vitro pharmacology data”.

Target: T1, Alpha-1D adrenergic receptor (Homo sapiens, UniProt P25100); further: in other assays of this panel Not Active means under 50% inhibition at 10 µM
T1 sequence (P25100 whole entry): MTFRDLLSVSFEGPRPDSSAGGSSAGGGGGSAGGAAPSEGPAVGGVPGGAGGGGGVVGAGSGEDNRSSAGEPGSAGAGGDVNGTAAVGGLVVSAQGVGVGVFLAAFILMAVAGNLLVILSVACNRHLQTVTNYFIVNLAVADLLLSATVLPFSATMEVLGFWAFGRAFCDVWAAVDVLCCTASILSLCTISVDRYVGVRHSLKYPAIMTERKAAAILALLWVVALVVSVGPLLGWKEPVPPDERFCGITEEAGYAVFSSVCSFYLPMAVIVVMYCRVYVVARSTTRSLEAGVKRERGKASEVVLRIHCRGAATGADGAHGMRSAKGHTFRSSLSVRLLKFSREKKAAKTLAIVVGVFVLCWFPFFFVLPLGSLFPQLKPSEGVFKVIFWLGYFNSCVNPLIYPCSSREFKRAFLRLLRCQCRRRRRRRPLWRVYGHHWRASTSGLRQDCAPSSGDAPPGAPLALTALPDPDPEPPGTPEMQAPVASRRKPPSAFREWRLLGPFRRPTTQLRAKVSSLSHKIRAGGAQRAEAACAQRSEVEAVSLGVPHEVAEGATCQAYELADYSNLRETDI
Experiment: not given
Format: cell membranes, HEK293, Membrane
Details: hek293

Row | SMILES | IC50
1 | CN(CCOc1ccc(CC2SC(=O)NC2=O)cc1)c1ccccn1 (stereo not drawn) [ROSIGLITAZONE] | Not Active
2 | Nc1ccc(S(=O)(=O)Nc2ncccn2)cc1 [SULFADIAZINE] | Not Active
3 | COc1ncnc(NS(=O)(=O)c2ccc(N)cc2)c1OC [SULFADOXINE] | Not Active
4 | Nc1ccc(S(=O)(=O)Nc2nccs2)cc1 [SULFATHIAZOLE] | Not Active
5 | C[C@]12CC[C@H]3[C@@H](CCC4=CC(=O)CC[C@@]43C)[C@@H]1CC[C@@H]2O [TESTOSTERONE] | Not Active
6 | CC(C)(C)NC[C@H](O)COc1nsnc1N1CCOCC1 [TIMOLOL] | Not Active
7 | C[C@@H]1C[C@H]2[C@@H]3CCC4=CC(=O)C=C[C@]4(C)C3=CC[C@]2(C)[C@H]1C(=O)CN1CCN(c2cc(N3CCCC3)nc(N3CCCC3)n2)CC1 [TIRILAZAD] | Not Active

Target: Cytochrome P450 2C19 (Homo sapiens, UniProt P33261); further: in other assays of this panel Not Active means under 50% inhibition at 10 µM
Experiment: not given
Details: bti-tn-5b1-4

Sequence of Cytochrome P450 2C19 (P33261 whole entry): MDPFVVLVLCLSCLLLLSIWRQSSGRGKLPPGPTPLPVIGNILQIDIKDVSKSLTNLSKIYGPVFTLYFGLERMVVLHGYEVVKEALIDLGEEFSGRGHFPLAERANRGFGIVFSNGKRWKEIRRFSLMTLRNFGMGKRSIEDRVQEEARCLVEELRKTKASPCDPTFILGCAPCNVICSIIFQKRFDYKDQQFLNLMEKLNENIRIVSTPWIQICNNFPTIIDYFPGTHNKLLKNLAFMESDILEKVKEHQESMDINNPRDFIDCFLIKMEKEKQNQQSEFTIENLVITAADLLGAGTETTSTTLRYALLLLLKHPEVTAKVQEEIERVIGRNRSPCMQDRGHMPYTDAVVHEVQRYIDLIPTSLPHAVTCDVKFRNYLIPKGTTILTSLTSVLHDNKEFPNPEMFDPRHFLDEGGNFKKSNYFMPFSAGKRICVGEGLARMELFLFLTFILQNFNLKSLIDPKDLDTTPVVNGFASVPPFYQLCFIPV

Row | SMILES | IC50 | Ki
8 | CN(CCOc1ccc(CC2SC(=O)NC2=O)cc1)c1ccccn1 (stereo not drawn) [ROSIGLITAZONE] | Not Active | Not Active
9 | Nc1ccc(S(=O)(=O)Nc2ncccn2)cc1 [SULFADIAZINE] | Not Active | Not Active
10 | COc1ncnc(NS(=O)(=O)c2ccc(N)cc2)c1OC [SULFADOXINE] | Not Active | Not Active
11 | Nc1ccc(S(=O)(=O)Nc2nccs2)cc1 [SULFATHIAZOLE] | Not Active | Not Active
12 | C[C@]12CC[C@H]3[C@@H](CCC4=CC(=O)CC[C@@]43C)[C@@H]1CC[C@@H]2O [TESTOSTERONE] | Not Active | Not Active
13 | CC(C)(C)NC[C@H](O)COc1nsnc1N1CCOCC1 [TIMOLOL] | Not Active | Not Active
14 | C[C@@H]1C[C@H]2[C@@H]3CCC4=CC(=O)C=C[C@]4(C)C3=CC[C@]2(C)[C@H]1C(=O)CN1CCN(c2cc(N3CCCC3)nc(N3CCCC3)n2)CC1 [TIRILAZAD] | Not Active | Not Active

Tested on: not listed separately
Experiment: DRUGMATRIX: Phosphodiesterase PDE4 enzyme inhibition (substrate: [3H]cAMP + cAMP)
Details: u-937; Not Active = under 50% inhibition at 10 µM

Row | SMILES | IC50 | Ki
15 | CN(CCOc1ccc(CC2SC(=O)NC2=O)cc1)c1ccccn1 (stereo not drawn) [ROSIGLITAZONE] | Not Active | Not Active
16 | Nc1ccc(S(=O)(=O)Nc2ncccn2)cc1 [SULFADIAZINE] | Not Active | Not Active
17 | COc1ncnc(NS(=O)(=O)c2ccc(N)cc2)c1OC [SULFADOXINE] | Not Active | Not Active
18 | Nc1ccc(S(=O)(=O)Nc2nccs2)cc1 [SULFATHIAZOLE] | Not Active | Not Active
19 | C[C@]12CC[C@H]3[C@@H](CCC4=CC(=O)CC[C@@]43C)[C@@H]1CC[C@@H]2O [TESTOSTERONE] | Not Active | Not Active
20 | CC(C)(C)NC[C@H](O)COc1nsnc1N1CCOCC1 [TIMOLOL] | Not Active | Not Active
21 | C[C@@H]1C[C@H]2[C@@H]3CCC4=CC(=O)C=C[C@]4(C)C3=CC[C@]2(C)[C@H]1C(=O)CN1CCN(c2cc(N3CCCC3)nc(N3CCCC3)n2)CC1 [TIRILAZAD] | Not Active | Not Active

Target: T2, Thromboxane-A synthase (Homo sapiens, UniProt P24557);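 further: enzyme inhibition assay with PGH2 supplied as substrate; in other assays of this panel Not Active means under 50% inhibition at 10 µM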
T2 sequence (P24557 whole entry): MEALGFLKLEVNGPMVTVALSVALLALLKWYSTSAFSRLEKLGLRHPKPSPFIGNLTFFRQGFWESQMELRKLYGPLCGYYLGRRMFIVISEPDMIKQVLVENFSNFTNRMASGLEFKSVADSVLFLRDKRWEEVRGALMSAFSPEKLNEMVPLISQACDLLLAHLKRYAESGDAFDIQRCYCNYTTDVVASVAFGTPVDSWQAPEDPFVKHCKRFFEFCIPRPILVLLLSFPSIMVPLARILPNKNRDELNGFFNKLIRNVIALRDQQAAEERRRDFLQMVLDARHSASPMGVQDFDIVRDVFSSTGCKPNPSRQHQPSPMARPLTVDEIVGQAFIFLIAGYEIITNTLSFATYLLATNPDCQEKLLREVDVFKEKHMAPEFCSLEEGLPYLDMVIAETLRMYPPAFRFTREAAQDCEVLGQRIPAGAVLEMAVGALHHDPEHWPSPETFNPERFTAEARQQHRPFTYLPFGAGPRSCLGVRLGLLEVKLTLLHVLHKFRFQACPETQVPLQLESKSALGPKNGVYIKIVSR
Experiment: biochemical
Format: tissue-based, Platelet
Details: platelet

Row | SMILES | IC50
22 | Nc1ccc(S(=O)(=O)Nc2ncccn2)cc1 [SULFADIAZINE] | Not Active
23 | COc1ncnc(NS(=O)(=O)c2ccc(N)cc2)c1OC [SULFADOXINE] | Not Active
24 | Nc1ccc(S(=O)(=O)Nc2nccs2)cc1 [SULFATHIAZOLE] | Not Active
25 | C[C@]12CC[C@H]3[C@@H](CCC4=CC(=O)CC[C@@]43C)[C@@H]1CC[C@@H]2O [TESTOSTERONE] | Not Active
26 | CC(C)(C)NC[C@H](O)COc1nsnc1N1CCOCC1 [TIMOLOL] | Not Active
27 | C[C@@H]1C[C@H]2[C@@H]3CCC4=CC(=O)C=C[C@]4(C)C3=CC[C@]2(C)[C@H]1C(=O)CN1CCN(c2cc(N3CCCC3)nc(N3CCCC3)n2)CC1 [TIRILAZAD] | Not Active

Same assay, conditions: read-out: IC50

Row | SMILES | IC50 [µM]
28 | CN(CCOc1ccc(CC2SC(=O)NC2=O)cc1)c1ccccn1 (stereo not drawn) [ROSIGLITAZONE] | 3.56

Target: T3, Alpha-1B adrenergic receptor (Rattus norvegicus, UniProt P15823)
T3 sequence (P15823 whole entry): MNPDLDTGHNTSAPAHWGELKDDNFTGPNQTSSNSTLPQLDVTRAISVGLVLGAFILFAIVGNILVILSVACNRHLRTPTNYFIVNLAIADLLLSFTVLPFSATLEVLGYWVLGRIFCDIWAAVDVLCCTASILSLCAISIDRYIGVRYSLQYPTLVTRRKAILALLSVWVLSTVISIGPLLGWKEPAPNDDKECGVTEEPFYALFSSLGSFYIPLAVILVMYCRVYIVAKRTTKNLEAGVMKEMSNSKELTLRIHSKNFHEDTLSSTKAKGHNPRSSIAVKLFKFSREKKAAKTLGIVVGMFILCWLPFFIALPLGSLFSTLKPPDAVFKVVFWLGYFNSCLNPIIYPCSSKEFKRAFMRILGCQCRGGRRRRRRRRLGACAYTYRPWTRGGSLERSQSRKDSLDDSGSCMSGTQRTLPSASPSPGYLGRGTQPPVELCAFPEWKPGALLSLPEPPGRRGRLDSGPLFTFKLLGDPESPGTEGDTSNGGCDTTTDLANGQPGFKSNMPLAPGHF
Experiment: DRUGMATRIX: Alpha-1B adrenergic receptor radioligand binding (ligand: prazosin)
Format: cell membranes, Wistar, Liver, Membrane
Details: Not Active = under 50% inhibition at 10 µM

Row | SMILES | IC50
29 | CN(CCOc1ccc(CC2SC(=O)NC2=O)cc1)c1ccccn1 (stereo not drawn) [ROSIGLITAZONE] | Not Active
30 | Nc1ccc(S(=O)(=O)Nc2ncccn2)cc1 [SULFADIAZINE] | Not Active
31 | COc1ncnc(NS(=O)(=O)c2ccc(N)cc2)c1OC [SULFADOXINE] | Not Active
32 | Nc1ccc(S(=O)(=O)Nc2nccs2)cc1 [SULFATHIAZOLE] | Not Active
33 | C[C@]12CC[C@H]3[C@@H](CCC4=CC(=O)CC[C@@]43C)[C@@H]1CC[C@@H]2O [TESTOSTERONE] | Not Active
34 | CC(C)(C)NC[C@H](O)COc1nsnc1N1CCOCC1 [TIMOLOL] | Not Active
35 | C[C@@H]1C[C@H]2[C@@H]3CCC4=CC(=O)C=C[C@]4(C)C3=CC[C@]2(C)[C@H]1C(=O)CN1CCN(c2cc(N3CCCC3)nc(N3CCCC3)n2)CC1 [TIRILAZAD] | Not Active

Target: T4, Vasoactive intestinal polypeptide receptor 1 (Homo sapiens, UniProt P32241); further: in other assays of this panel Not Active means under 50% inhibition at 10 µM
T4 sequence (P32241 whole entry): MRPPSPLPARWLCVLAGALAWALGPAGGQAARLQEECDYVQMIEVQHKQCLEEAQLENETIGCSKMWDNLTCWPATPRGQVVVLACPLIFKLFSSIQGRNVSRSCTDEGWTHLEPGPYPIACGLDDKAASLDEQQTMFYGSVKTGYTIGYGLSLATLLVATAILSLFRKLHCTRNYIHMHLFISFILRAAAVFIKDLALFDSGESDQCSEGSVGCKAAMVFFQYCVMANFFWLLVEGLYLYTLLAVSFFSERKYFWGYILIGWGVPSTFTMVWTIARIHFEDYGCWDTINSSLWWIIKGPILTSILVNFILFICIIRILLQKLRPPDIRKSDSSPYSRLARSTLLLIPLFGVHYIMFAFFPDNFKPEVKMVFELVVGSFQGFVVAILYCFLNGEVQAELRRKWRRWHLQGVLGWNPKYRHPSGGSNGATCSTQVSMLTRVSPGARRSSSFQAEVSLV
Experiment: not given
Format: cell membranes, Membrane
Details: ht-29

Row | SMILES | IC50
36 | CN(CCOc1ccc(CC2SC(=O)NC2=O)cc1)c1ccccn1 (stereo not drawn) [ROSIGLITAZONE] | Not Active
37 | Nc1ccc(S(=O)(=O)Nc2ncccn2)cc1 [SULFADIAZINE] | Not Active
38 | COc1ncnc(NS(=O)(=O)c2ccc(N)cc2)c1OC [SULFADOXINE] | Not Active
39 | Nc1ccc(S(=O)(=O)Nc2nccs2)cc1 [SULFATHIAZOLE] | Not Active
40 | C[C@]12CC[C@H]3[C@@H](CCC4=CC(=O)CC[C@@]43C)[C@@H]1CC[C@@H]2O [TESTOSTERONE] | Not Active
41 | CC(C)(C)NC[C@H](O)COc1nsnc1N1CCOCC1 [TIMOLOL] | Not Active
42 | C[C@@H]1C[C@H]2[C@@H]3CCC4=CC(=O)C=C[C@]4(C)C3=CC[C@]2(C)[C@H]1C(=O)CN1CCN(c2cc(N3CCCC3)nc(N3CCCC3)n2)CC1 [TIRILAZAD] | Not Active

Target: T5, C-X-C chemokine receptor type 2 (Homo sapiens, UniProt P25025); further: in other assays of this panel Not Active means under 50% inhibition at 10 µM
T5 sequence (P25025 whole entry): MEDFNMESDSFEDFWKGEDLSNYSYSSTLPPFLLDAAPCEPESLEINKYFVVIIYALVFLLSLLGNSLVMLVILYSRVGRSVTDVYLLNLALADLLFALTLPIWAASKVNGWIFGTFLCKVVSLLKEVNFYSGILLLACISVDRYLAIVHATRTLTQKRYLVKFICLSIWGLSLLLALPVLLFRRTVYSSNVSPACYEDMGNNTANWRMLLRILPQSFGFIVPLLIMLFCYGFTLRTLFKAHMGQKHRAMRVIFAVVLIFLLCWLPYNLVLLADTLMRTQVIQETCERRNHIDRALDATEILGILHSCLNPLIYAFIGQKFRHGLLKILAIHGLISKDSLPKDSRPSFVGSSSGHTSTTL
Experiment: not given
Format: cell membranes, Membrane
Details: cho-k1

Row | SMILES | IC50
43 | CN(CCOc1ccc(CC2SC(=O)NC2=O)cc1)c1ccccn1 (stereo not drawn) [ROSIGLITAZONE] | Not Active
44 | Nc1ccc(S(=O)(=O)Nc2ncccn2)cc1 [SULFADIAZINE] | Not Active
45 | COc1ncnc(NS(=O)(=O)c2ccc(N)cc2)c1OC [SULFADOXINE] | Not Active
46 | Nc1ccc(S(=O)(=O)Nc2nccs2)cc1 [SULFATHIAZOLE] | Not Active
47 | C[C@]12CC[C@H]3[C@@H](CCC4=CC(=O)CC[C@@]43C)[C@@H]1CC[C@@H]2O [TESTOSTERONE] | Not Active
48 | CC(C)(C)NC[C@H](O)COc1nsnc1N1CCOCC1 [TIMOLOL] | Not Active
49 | C[C@@H]1C[C@H]2[C@@H]3CCC4=CC(=O)C=C[C@]4(C)C3=CC[C@]2(C)[C@H]1C(=O)CN1CCN(c2cc(N3CCCC3)nc(N3CCCC3)n2)CC1 [TIRILAZAD] | Not Active
